Experimental data published in US7632783B2 (priority 2004, dated 2009).

How the values were obtained:
[1] = test system: rice blast (Pyricularia oryzae); format: in vivo; conditions: potted rice (variety Karakaze), spraying liquid 300 ppm after spore inoculation, observed 7 days after inoculation, levels 0 to 3
[2] = test system: gray mold (Botrytis cinerea); test: Tomato gray mold control test (preventive effects); format: in vivo; conditions: potted tomato (giant Fukuju variety), spraying liquid 300 ppm before spore inoculation, investigated 2 days after inoculation, levels 0 to 3
Description: Bulk drug was dissolved in a mixed solution of dimethylsulfoxide and methanol (volume ratio: 7/3), and spraying liquids containing 300 ppm of compounds of the present invention were uniformly sprayed onto potted test plants (tomato: giant Fukuju variety) in the second to third leaf stage. […], a suspension of pathogen spores were inoculated by spraying onto the pots in an inoculation room at a room temperature of 20 to 23° C. to promote the onset of disease. The degree of disease onset was investigated 2 days after inoculation. The test was carried out in duplicate.
Furthermore, the degree of disease onset was evaluated to one of four levels from 0 to 3 according to the criteria below by macroscopically observing the degree of disease onset of the test plants.
1: Degree of disease onset less than 40% of the untreated area
2: Degree of disease onset 40% to less than 80% of the untreated area
3: Degree of disease onset 80% or more

Molecule | degree of disease onset [1] | degree of disease onset [2]
CC1(C)N=C(c2cnc3ccccc3c2)c2cccc(F)c2C1(C)C.O=[N+]([O-])O [Example 158, 3-(5-fluoro-3,3,4,4-tetramethyl-3,4-dihydroisoquinolin-1-yl)quinoline nitrate] | 0 | 0
CC1(C)N=C(c2cnc3ccccc3c2)c2cccc(F)c2C1(C)C.Cl [Example 156, 3-(5-fluoro-3,3,4,4-tetramethyl-3,4-dihydroisoquinolin-1-yl)quinoline hydrochloride] | 0 | 0
CC1(c2ccc(Cl)cc2)Cc2ccccc2C(c2cnc3ccccc3c2)=N1 (stereo not shown) [Example 73, 3-[3-(4-chlorophenyl)-3-methyl-3,4-dihydroisoquinolin-1-yl]quinoline] | 0 | 0
CC1(C)N2OC2(c2cnc3ccccc3c2)c2cccc(F)c2C1(F)F (stereo not shown) [Example 203, 4,4,5-trifluoro-3,3-dimethyl-8b-quinolin-3-yl-4,8b-dihydro-3H-oxazileno[3,2-a]isoquinoline] | 0 | 0
CC1(C)Cc2c(Br)cccc2C(c2cnc3ccccc3c2)=N1 [Example 22, 3-(5-bromo-3,3-dimethyl-3,4-dihydroisoquinolin-1-yl)quinoline] | 0 | 0
CC1(C)N=C(c2cnc3ccc(F)cc3c2)c2cccc(F)c2C1(C)C [Example 163, 3-(5-fluoro-3,3,4,4-tetramethyl-3,4-dihydroisoquinolin-1-yl)-6-fluoroquinoline] | 0 | 0
CC1(C)c2ccccc2C2(c3cnc4ccccc4c3)ON2C1(C)C (stereo not shown) [Example 196, 3,3,4,4-tetramethyl-8b-quinolin-3-yl-4,8b-dihydro-3H-oxazileno[3,2-a]isoquinoline] | 0 | 0
CC1(C)N=C(c2cnc3ccccc3c2)c2cccc(F)c2C1(C)C [Example 114, 3-(5-fluoro-3,3,4,4-tetramethyl-3,4-dihydroisoquinolin-1-yl)quinoline] | 0 | 0
3-(5-fluoro-3,3-dimethyl-3,4-dihydroisoquinolin-1-yl)quinoline salicylate [Example 108] | 0 | 0
Cc1cccc2cc(C3=NC(C)(C)Cc4c(F)cccc43)cnc12 [Example 14, 3-(5-fluoro-3,3-dimethyl-3,4-dihydroisoquinolin-1-yl)-8-methylquinoline] | 0 | 0
CC1(C)Cc2c(F)cccc2C(c2cnc3ccccc3c2)=N1.Cl [Example 103, 3-(5-fluoro-3,3-dimethyl-3,4-dihydroisoquinolin-1-yl)quinoline hydrochloride] | 0 | 0
CC1(C)Cc2c(F)cccc2C(c2cnc3ccccc3c2)=N1 [Example 2, 3-(5-fluoro-3,3-dimethyl-3,4-dihydroisoquinolin-1-yl)quinoline] | 0 | 0
CC1(C)N=C(c2cnc3ccccc3c2)c2ccccc2C1(F)F [Example 177, 3-(4,4-difluoro-3,3-dimethyl-3,4-dihydroisoquinolin-1-yl)quinoline] | 0 | 0
CC1(C)N=C(c2cnc3ccccc3c2)c2cccc(F)c2C1(F)F [Example 178, 3-(4,4,5-trifluoro-3,3-dimethyl-3,4-dihydroisoquinolin-1-yl)quinoline] | 0 | 0
CC1(C)Cc2ccc(Cl)cc2C(c2cnc3ccccc3c2)=N1 [Example 21, 3-(7-chloro-3,3-dimethyl-3,4-dihydroisoquinolin-1-yl)quinoline] | 0 | 0
CC1(C)Cc2c(Cl)cccc2C(c2cnc3ccccc3c2)=N1 [Example 18, 3-(5-chloro-3,3-dimethyl-3,4-dihydroisoquinolin-1-yl)quinoline] | 0 | 0
Fc1ccc(C2(CCl)Cc3ccccc3C(c3cnc4ccccc4c3)=N2)cc1 (stereo not shown) [Example 75, 3-[3-chloromethyl-3-(4-fluorophenyl)-3,4-dihydroisoquinolin-1-yl]quinoline] | 0 | 0
CC1(C)c2cc(Cl)ccc2C(c2cnc3ccccc3c2)=[N+]([O-])C1(C)C [Example 211, 3-(6-chloro-3,3,4,4-tetramethyl-2-oxide-3,4-dihydroisoquinolin-1-yl)quinoline] | 0 | 0
CC1(C)[N+]([O-])=C(c2cnc3ccccc3c2)c2cccc(F)c2C1(F)F [Example 219, 3-(4,4,5-trifluoro-3,3-dimethyl-2-oxide-3,4-dihydroisoquinolin-1-yl)quinoline] | 0 | 0

Molecule | degree of disease onset [1] | degree of disease onset [2]
CC1(C)c2ccccc2C2(c3cnc4ccccc4c3)ON2C12CCCC2 (stereo not shown) [Example 202, 4′,4′-dimethyl-8b′-quinolin-3-yl-4′,8b′-dihydrospiro[cyclopentane-1,3′-oxazileno[3,2-a]isoquinoline]] | 0 | 0
CC1(C(F)(F)F)Cc2ccccc2C(c2cnc3ccccc3c2)=N1 (stereo not shown) [Example 68, 3-(3-trifluoromethyl-3-methyl-3,4-dihydroisoquinolin-1-yl)quinoline] | 0 | 0
CC1(C)c2cc(F)ccc2C2(c3cnc4ccccc4c3)ON2C1(C)C (stereo not shown) [Example 199, 6-fluoro-3,3,4,4-tetramethyl-8b-quinolin-3-yl-4,8b-dihydro-3H-oxazileno[3,2-a]isoquinoline] | 0 | 0
CC1(C)Cc2c(F)cccc2C(c2cnc3ccccc3c2)=N1.O=C(O)/C=C/C(=O)O [Example 109, 3-(5-fluoro-3,3-dimethyl-3,4-dihydroisoquinolin-1-yl)quinoline fumarate] | 0 | 0
CCCC1(C)Cc2c(F)cccc2C(c2cnc3ccccc3c2)=N1 (stereo not shown) [Example 58, 3-(5-fluoro-3-methyl-3-propyl-3,4-dihydroisoquinolin-1-yl)quinoline] | 0 | 0
CC1(C)N=C(c2cnc3ccccc3c2)c2cccc(F)c2C1F (stereo not shown) [Example 174, 3-(4,5-difluoro-3,3-dimethyl-3,4-dihydroisoquinolin-1-yl)quinoline] | 0 | 0
CC1(C)Cc2c(F)cccc2C(c2cnc3ccccc3c2)=N1.CS(=O)(=O)O [Example 107, 3-(5-fluoro-3,3-dimethyl-3,4-dihydroisoquinolin-1-yl)quinoline methanesulfonate] | 0 | 0
CC1(C)Cc2cc(Br)ccc2C(c2cnc3ccccc3c2)=N1 [Example 23, 3-(6-bromo-3,3-dimethyl-3,4-dihydroisoquinolin-1-yl)quinoline] | – | 0
CC1(CCl)Cc2ccccc2C(c2cnc3ccccc3c2)=N1 (stereo not shown) [Example 66, 3-(3-chloromethyl-3-methyl-3,4-dihydroisoquinolin-1-yl)quinoline] | 0 | 0
CC1(CC(F)(F)F)Cc2ccccc2C(c2cnc3ccccc3c2)=N1 (stereo not shown) [Example 69, 3-(3-trifluoroethyl-3-methyl-3,4-dihydroisoquinolin-1-yl)quinoline] | 0 | 0
Cc1cccc2cc(C3=NC(C)(C)C(C)(C)c4c(F)cccc43)cnc12 [Example 165, 3-(5-fluoro-3,3,4,4-tetramethyl-3,4-dihydroisoquinolin-1-yl)-8-methylquinoline] | 0 | 0
CC1(c2ccccc2)Cc2ccccc2C(c2cnc3ccccc3c2)=N1 (stereo not shown) [Example 71, 3-(3-methyl-3-phenyl-3,4-dihydroisoquinolin-1-yl)quinoline] | 0 | 0
CC1(C)c2cc(F)ccc2C(c2cnc3ccccc3c2)=[N+]([O-])C1(C)C [Example 209, 3-(6-fluoro-3,3,4,4-tetramethyl-2-oxide-3,4-dihydroisoquinolin-1-yl)quinoline] | 0 | 0
CN1C(c2cnc3ccccc3c2)c2cccc(F)c2C(C)(C)C1(C)C (stereo not shown) [Example 191, 3-(5-fluoro-2,3,3,4,4-pentamethyl-1,2,3,4-tetrahydroisoquinoline-1-yl)quinoline] | – | 0
CC1(C)c2ccccc2C(c2cnc3ccccc3c2)=[N+]([O-])C1(C)C [Example 207, 3-(3,3,4,4-tetramethyl-2-oxide-3,4-dihydroisoquinolin-1-yl)quinoline] | 0 | 0
C#Cc1cccc2c1CC(C)(C)N=C2c1cnc2ccccc2c1 [Example 30, 3-(5-ethynyl-3,3-dimethyl-3,4-dihydroisoquinolin-1-yl)quinoline] | 0 | 0
CC1(C)Cc2cc(Cl)ccc2C(c2cnc3ccccc3c2)=N1 [Example 20, 3-(6-chloro-3,3-dimethyl-3,4-dihydroisoquinolin-1-yl)quinoline] | – | 0
CC1(C)Cc2c(ccc(Cl)c2Cl)C(c2cnc3ccccc3c2)=N1 [Example 53, 3-(5,6-dichloro-3,3-dimethyl-3,4-dihydroisoquinolin-1-yl)quinoline] | – | 0
